Assay results taken from PubChem BioAssay (NCI).
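1) Cells in 96-well plates. 2) Compound, 48 h, 5 concentrations. 3) Linear interpolation between surrounding doses. 4) Unreached endpoint = highest concentration. TGI: total growth inhibition.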

What was measured:
Test in all cases: inhibition of tumour cell growth, NCI panel, 48 h
BT-549 breast = system: BT-549 breast
COLO 205 colon = system: COLO 205 colon
DU-145 prostate = system: DU-145 prostate
EKVX NSCLC = system: EKVX NSCLC
HCC-2998 colon = system: HCC-2998 colon
KM12 colon = system: KM12 colon
MCF7 breast = system: MCF7 breast
SF-268 CNS = system: SF-268 CNS
SNB-19 CNS = system: SNB-19 CNS
UACC-257 melanoma = system: UACC-257 melanoma
UO-31 renal = system: UO-31 renal

Compound | TGI (BT-549 breast) | TGI (COLO 205 colon) | TGI (DU-145 prostate) | TGI (EKVX NSCLC) | TGI (HCC-2998 colon) | TGI (KM12 colon) | TGI (MCF7 breast) | TGI (SF-268 CNS) | TGI (SNB-19 CNS) | TGI (UACC-257 melanoma) | TGI (UO-31 renal)
COc1ccc(C2SCC(=O)N2c2ccc(-n3c(-c4ccccc4)nc4ccccc4c3=O)cc2)cc1 (stereo not drawn) | > 100 µM | > 100 µM | > 100 µM | > 100 µM | > 100 µM | > 100 µM | > 100 µM | > 100 µM | > 100 µM | > 100 µM | > 100 µM
Nc1ncnc2c1ncn2[C@H]1C=C[C@@H](NO)C1 | > 100 µM | > 100 µM | > 100 µM | > 100 µM | > 100 µM | > 100 µM | > 100 µM | > 100 µM | > 100 µM | > 100 µM | > 100 µM
COC(=O)C1CCC(=O)N1C(c1ccc(OC)cc1)c1cc(OC)c(OC)c(OC)c1 (stereo not drawn) | > 100 µM | 0.802 µM | 0.771 µM | > 100 µM | 0.6 µM | 1.12 µM | > 100 µM | > 100 µM | > 100 µM | > 100 µM | > 100 µM
Cc1cc(N(CCC#N)CCC#N)ccc1/C(N=Nc1ccc([N+](=O)[O-])cc1)=N\NC(=O)c1cc(Cl)ccc1O | > 100 µM | 54.2 µM | > 100 µM | 82.4 µM | 46.2 µM | > 100 µM | > 100 µM | 91.3 µM | > 100 µM | > 100 µM | 56.8 µM
CC1C(C)(C)C23CC12C1(OCCO1)C3Br (stereo not drawn) | > 100 µM | > 100 µM | > 100 µM | > 100 µM | > 100 µM | > 100 µM | > 100 µM | > 100 µM | > 100 µM | > 100 µM | > 100 µM
COc1ccc(/[N+]([O-])=C/c2ccc(OC(=S)S)c(OC)c2)cc1 | 79.7 µM | > 100 µM | > 100 µM | > 100 µM | > 100 µM | 33.3 µM | > 100 µM | > 100 µM | > 100 µM | > 100 µM | > 100 µM
Cc1nc(-c2ccccc2)cn2c1nc1ccccc12 | 38.9 µM | > 100 µM | > 100 µM | > 59.6 µM | > 100 µM | > 70.3 µM | 23.4 µM | > 66.8 µM | > 76.2 µM | > 82.3 µM | 46.5 µM
CCCCCCN(CCCCCC)CCC(=O)c1ccc2cc(Br)c3ccccc3c2c1 | 51.6 µM | 80.4 µM | > 100 µM | > 100 µM | > 100 µM | 52.9 µM | 54.9 µM | > 100 µM | > 100 µM | > 100 µM | > 100 µM
COC(=O)C(CNC(=O)/C=C/c1ccc(OC)c(OC)c1)NC(=O)/C=C/c1ccc(OC)c(OC)c1 (stereo not drawn) | > 100 µM | > 100 µM | > 100 µM | > 100 µM | > 100 µM | > 100 µM | > 100 µM | > 100 µM | > 100 µM | > 100 µM | > 100 µM
CC(C)C1CSC2N1C(=O)C2(OCc1ccccc1)C1CC1 (stereo not drawn) | > 100 µM | > 100 µM | > 100 µM | > 100 µM | > 100 µM | > 100 µM | > 100 µM | > 100 µM | > 100 µM | > 100 µM | > 100 µM
CCOC(=O)CNC(=O)C(CCC(=O)N(C)O)NC(=O)CCC(N)C(=O)O (stereo not drawn) | > 100 µM | > 100 µM | > 100 µM | > 100 µM | > 100 µM | > 100 µM | > 100 µM | > 100 µM | > 100 µM | > 100 µM | > 100 µM
COc1ccc(/C=N\N(C)Cc2cccc3ccsc23)cc1 | > 100 µM | > 100 µM | > 100 µM | > 100 µM | > 100 µM | > 100 µM | > 100 µM | > 100 µM | > 100 µM | > 100 µM | > 100 µM
CCOC(=O)c1c(N)sc2c1CC(C)CC2 (stereo not drawn) | > 100 µM | 89.5 µM | > 100 µM | > 100 µM | 45.6 µM | > 100 µM | > 100 µM | > 100 µM | > 100 µM | 97.3 µM | > 100 µM
C#C[C@]1(O)CC[C@H]2[C@@H]3CCC4=C/C(=N\OCCN5CCCCC5)CC[C@]4(C)[C@H]3CC[C@@]21C | 17.6 µM | 7.43 µM | 23.1 µM | 19.9 µM | 35.2 µM | 12.3 µM | 15.6 µM | 21.7 µM | 19.1 µM | 12.8 µM | 16 µM
CCOC(=O)c1c(O)cn2c1[nH]c1cccc3cccc2c31 | > 100 µM | > 100 µM | > 100 µM | > 100 µM | > 100 µM | > 100 µM | > 100 µM | > 100 µM | > 100 µM | > 100 µM | > 100 µM
CC(C)(C)c1cc(/C=C(\C#N)C2=NCCO2)cc(C(C)(C)C)c1O | 12.4 µM | 3.39 µM | > 40.9 µM | 17.2 µM | 8.77 µM | 15.6 µM | 12.7 µM | 16.1 µM | 15.5 µM | 7.89 µM | 9.27 µM
COc1ccc(C2CC(c3c(O)ccc4ccccc34)=NN2)cc1OC (stereo not drawn) | 16.1 µM | 46.5 µM | 36.1 µM | 22.1 µM | 6.15 µM | 11.4 µM | 34.5 µM | 11.5 µM | 6.34 µM | 20.4 µM | 5.7 µM

Compound | TGI (BT-549 breast) | TGI (COLO 205 colon) | TGI (DU-145 prostate) | TGI (EKVX NSCLC) | TGI (HCC-2998 colon) | TGI (KM12 colon) | TGI (MCF7 breast) | TGI (SF-268 CNS) | TGI (SNB-19 CNS) | TGI (UACC-257 melanoma) | TGI (UO-31 renal)
O=C(OC1=CCN(Br)C1=O)C1=C(O)C(=O)N(Br)C1 | 46 µM | 54.4 µM | > 100 µM | 77.8 µM | > 100 µM | > 100 µM | > 100 µM | 67.3 µM | 43.6 µM | 87.6 µM | > 100 µM
O=S(=O)(O)c1ccc(N=Nc2ccccc2)cc1 | > 100 µM | > 100 µM | > 100 µM | > 100 µM | > 100 µM | > 100 µM | > 100 µM | > 100 µM | > 100 µM | > 100 µM | > 100 µM
CN(C)Cc1cc(Cl)c(O)c(CN(C)C)c1 | > 100 µM | > 100 µM | > 100 µM | > 100 µM | > 100 µM | > 100 µM | > 100 µM | > 100 µM | > 100 µM | > 100 µM | > 100 µM
O=c1[nH]c(Nc2ccc(Br)c(C(F)(F)F)c2)nc2nc[nH]c12 | > 100 µM | 41 µM | > 100 µM | > 100 µM | 40.5 µM | > 100 µM | > 100 µM | > 100 µM | > 100 µM | > 100 µM | 77.4 µM
O=C(Cc1ccc2ccccc2c1)NCc1ccc(C(=O)NCCc2ccccc2)cc1 | > 100 µM | > 100 µM | > 100 µM | > 100 µM | > 100 µM | > 100 µM | > 100 µM | > 100 µM | > 100 µM | > 100 µM | > 100 µM
COC(=O)[C@H](Cc1ccccc1)NC(=O)c1ccc(CNC(=O)/C=C/c2ccc(OCc3ccccc3)cc2)cc1 | 57.9 µM | > 100 µM | 32.4 µM | 87.6 µM | > 100 µM | > 100 µM | > 100 µM | 28.1 µM | 36.8 µM | 7.33 µM | 29.5 µM
COC1OC2COC1(OCc1ccccc1)C1OC(C)(C)OC21 (stereo not drawn) | > 100 µM | > 100 µM | > 100 µM | > 100 µM | > 100 µM | > 100 µM | > 100 µM | > 100 µM | > 100 µM | > 100 µM | > 100 µM
COc1ccc(CCN2CCN(CCCc3ccccc3)CC2)cc1 | > 100 µM | 54.3 µM | > 100 µM | > 100 µM | > 100 µM | > 100 µM | > 100 µM | > 100 µM | > 100 µM | > 100 µM | > 100 µM
CCCCSC1=N/C(=C\c2ccccc2O)C(=O)N1 | > 100 µM | > 100 µM | > 100 µM | > 100 µM | > 100 µM | > 100 µM | > 100 µM | > 100 µM | > 100 µM | > 100 µM | > 100 µM
ClCc1nc2ccccc2[nH]1 | > 100 µM | > 100 µM | > 100 µM | > 100 µM | > 100 µM | > 100 µM | > 100 µM | > 100 µM | > 100 µM | > 100 µM | > 100 µM
NS(=O)(=O)c1ccc(NC(=O)N/N=C/c2ccccc2[N+](=O)[O-])cc1 | > 100 µM | > 100 µM | > 100 µM | > 100 µM | > 100 µM | > 100 µM | > 100 µM | > 100 µM | > 100 µM | > 100 µM | > 100 µM
Cc1ccc(S(=O)(=O)n2cc(C=O)c(-c3cn(S(=O)(=O)c4ccc(C)cc4)cc3-c3cn(S(=O)(=O)c4ccc(C)cc4)cc3C=O)c2)cc1 | > 100 µM | > 100 µM | > 100 µM | > 100 µM | > 100 µM | > 100 µM | 87.2 µM | > 100 µM | > 100 µM | > 100 µM | > 100 µM
O=P1(c2ccccc2)C(c2ccccc2)CCC1c1ccccc1 (stereo not drawn) | 85.5 µM | > 100 µM | > 100 µM | > 100 µM | > 100 µM | > 100 µM | > 100 µM | > 100 µM | > 100 µM | > 100 µM | > 100 µM
O=C(Nc1ccccc1)N(CCN(Cc1ccccc1)C(=O)Nc1ccccc1)CCN(Nc1ccccc1)C(=O)Nc1ccccc1 | > 100 µM | > 100 µM | > 100 µM | > 100 µM | > 100 µM | > 100 µM | > 100 µM | > 100 µM | > 100 µM | > 100 µM | > 100 µM
C=C1C(C(=O)OC)[C@H]1C(=O)OC (stereo partly drawn) | > 100 µM | > 100 µM | > 100 µM | > 100 µM | > 100 µM | > 100 µM | > 100 µM | > 100 µM | > 100 µM | > 100 µM | > 100 µM
COc1ccc(/C=C2\N=C(N3CCCC(CO)C3)NC2=O)cc1 (stereo not drawn) | > 100 µM | > 100 µM | > 100 µM | > 100 µM | > 100 µM | > 100 µM | > 100 µM | > 100 µM | > 100 µM | > 100 µM | > 100 µM
